From PubChem BioAssay AID1259407 (Chemical Carcinogenesis Research Information System (CCRIS), 2018) come the findings set out here.

Calls of active or inactive are those of the source. The rule behind the calls is not given here.

This data set concerns CCRIS mutagenicity, Ames/micronucleus/aberration tests. The data set is described as follows: CCRIS mutagenicity studies.

On to `CC(C)(OO)c1ccccc1`, for which the mutagenic call runs as follows: (Test System: AMES SALMONELLA TYPHIMURIUM, Strain/Indicator: TA97A, Metabolic Activation: RAT LIVER S-9, AROCLOR 1254, Method: PREINCUBATION) “active; positive”; (Test System: AMES SALMONELLA TYPHIMURIUM, Strain/Indicator: TA98, Metabolic Activation: NONE, Method: FLUCTUATION (MICROTITER)) “active; positive”; (Test System: AMES SALMONELLA TYPHIMURIUM, Strain/Indicator: TA98, Metabolic Activation: RAT LIVER S-9, AROCLOR 1254, Method: FLUCTUATION (MICROTITER)) “inactive; negative”; (Test System: AMES SALMONELLA TYPHIMURIUM, Strain/Indicator: TA104, Metabolic Activation: RAT LIVER S-9, AROCLOR 1254, Method: PREINCUBATION) “active; positive”; (Test System: AMES SALMONELLA TYPHIMURIUM, Strain/Indicator: TA1537, Metabolic Activation: NONE, Method: FLUCTUATION (MICROTITER)) “active; positive”; (Test System: AMES SALMONELLA TYPHIMURIUM, Strain/Indicator: TA1537, Metabolic Activation: RAT LIVER S-9, AROCLOR 1254, Method: FLUCTUATION (MICROTITER) “active; positive”. The mutagenic call was “active; positive” (Test System: AMES SALMONELLA TYPHIMURIUM, Strain/Indicator: TA2638A, Metabolic Activation: NONE, Method: STANDARD PLATE); “inactive; negative” (Test System: AMES SALMONELLA TYPHIMURIUM, Strain/Indicator: TA7001, Metabolic Activation: NONE, Method: FLUCTUATION (MICROTITER)); “active; positive” (Test System: AMES SALMONELLA TYPHIMURIUM, Strain/Indicator: TA7001, Metabolic Activation: RAT LIVER S-9, AROCLOR 1254, Method: FLUCTUATION (MICROTITER)); “active; positive” (Test System: AMES SALMONELLA TYPHIMURIUM, Strain/Indicator: TA7002, Metabolic Activation: NONE, Method: FLUCTUATION (MICROTITER)); “inactive; negative” (Test System: AMES SALMONELLA TYPHIMURIUM, Strain/Indicator: TA7002, Metabolic Activation: RAT LIVER S-9, AROCLOR 1254, Method: FLUCTUATION (MICROTITER)); “inactive; negative” (Test System: AMES SALMONELLA TYPHIMURIUM, Strain/Indicator: TA7003, Metabolic Activation: NONE, Method: FLUCTUATION (MICROTITER)). Further, the mutagenic call runs as follows: (Test System: AMES SALMONELLA TYPHIMURIUM, Strain/Indicator: TA7003, Metabolic Activation: RAT LIVER S-9, AROCLOR 1254, Method: FLUCTUATION (MICROTITER)) “inactive; negative”; (Test System: AMES SALMONELLA TYPHIMURIUM, Strain/Indicator: TA7004, Metabolic Activation: NONE, Method: FLUCTUATION (MICROTITER)) “active; positive”; (Test System: AMES SALMONELLA TYPHIMURIUM, Strain/Indicator: TA7004, Metabolic Activation: RAT LIVER S-9, AROCLOR 1254, Method: FLUCTUATION (MICROTITER)) “active; positive”; (Test System: AMES SALMONELLA TYPHIMURIUM, Strain/Indicator: TA7005, Metabolic Activation: NONE, Method: FLUCTUATION (MICROTITER)) “active; positive”; (Test System: AMES SALMONELLA TYPHIMURIUM, Strain/Indicator: TA7005, Metabolic Activation: RAT LIVER S-9, AROCLOR 1254, Method: FLUCTUATION (MICROTITER)) “active; positive”; (Test System: AMES SALMONELLA TYPHIMURIUM, Strain/Indicator: TA7006, Metabolic Activation: NONE, Method: FLUCTUATION (MICROTITER)) “active; positive”. In addition, the mutagenic call is “active; positive” (Test System: AMES SALMONELLA TYPHIMURIUM, Strain/Indicator: TA7006, Metabolic Activation: RAT LIVER S-9, AROCLOR 1254, Method: FLUCTUATION (MICROTITER)); “active; positive” (Test System: E. COLI, Strain/Indicator: WP2 (PKM101), Metabolic Activation: NONE, Method: STANDARD PLATE); “active; positive” (Test System: E. COLI, Strain/Indicator: WP2 UVRA (PKM101), Metabolic Activation: NONE, Method: STANDARD PLATE).
Take `COc1ccc2c(c1)-c1nn(CCCN(C)C)c3ccc([N+](=O)[O-])c(c13)N2`: the mutagenic call (Test System: Mouse lymphoma, Strain/Indicator: L5178Y (tk+/tk-), Metabolic Activation: None, Method: Suspension/plate) is “active; positive” and the mutagenic call (Test System: Mouse lymphoma, Strain/Indicator: L5178Y (tk+/tk-), Metabolic Activation: Rat, Liver, S-9, Aroclor 1254, Method: Suspension/plate) was “active; positive”.
